Counter-ions that a name gives are not always drawn.
Key:
Format in all cases: physicochemical
[1] = Erythromycin solubility in oils
[2] = Doxorubicin ion pair solubility in vitamin E and emulsification; conditions: ion pair with vitamin E phosphate free acid at 2:1 molar ratio
Excerpt: A fine emulsion can be prepared using high pressure homogenization to reduce particle size.

[3] = Solubility of clarithromycin in tocopherol oil phase (crystals on cooling)
Procedure: Clarithromycin was obtained as the free base from Wockhardt (Delhi, India). Vitamin E Succinate (VESA) was obtained from Eastman (Freeport Tenn.). Capmul® MCM was obtained from Abitec (Janesville Wis.); Poloxamer® 407 (Pluronic® F-127) from BASF (Parsippany N.J.); PEG-400 from Spectrum Chemicals (Gardenia Calif.), and d-δ-tocopherol from Sigma Chemicals (St Louis MO). An oil phase consisting of d-δ-tocopherol and Capmul MCM was prepared using 2 parts of δ-tocopherol. Dry ethanol was used to dissolve the components at 70° C. and the ethanol was then removed under vacuum. […] A tocol-soluble ion pair of this compound was then produced by addition of a stoichiometric equivalent of Vitamin E succinate (VESA) as the free acid. […] The clarithromycin was now sufficiently soluble in the tocopherol oil to allow subsequent preparation of the emulsion. The oil was then re-heated to 45° C. and degassed immediately prior to emulsification as described below.

[4] = Release rate by dialysis in a diffusion chamber model; conditions: against 20% glycerol, 3% Poloxamer 407, pH 7.4, 37° C.
Procedure: Amiodarone HCl and a tocol emulsion containing amiodarone and tocopherol phosphate as a tocol-soluble binary ion pair, prepared as mentioned above, were dialyzed against 20% glycerol, 3% Poloxamer 407 at pH 7.4 and 37° C.
The rate of free or complexed drug exiting the dialysis chamber provides an indirect estimate of the “sustained release” properties of the emulsion and the strength of the ion pair species.

With `CC[C@H]1OC(=O)[C@H](C)[C@@H](O[C@H]2C[C@@](C)(OC)[C@@H](O)[C@H](C)O2)[C@H](C)[C@@H](O[C@@H]2O[C@H](C)C[C@H](N(C)C)[C@H]2O)[C@](C)(O)C[C@@H](C)C(=O)[C@H](C)[C@@H](O)[C@]1(C)O` [Erythromycin] the “solubility in medium-chain triglycerides (MCT)” value ([1]; MCT) was roughly 4 % w/w and the “solubility in α-tocopherol” value ([1]; α-tocopherol) was “approximately 10 % w/w”.
In the case of `COc1cccc2c1C(=O)c1c(O)c3c(c(O)c1C2=O)C[C@@](O)(C(=O)CO)C[C@@H]3O[C@H]1C[C@H](N)[C@H](O)[C@H](C)O1` [doxorubicin free base, Doxorubicin], the “Solubility of ion pair in vitamin E” value [2] is reported as “soluble in vitamin E”.
With `CC[C@H]1OC(=O)[C@H](C)[C@@H](O[C@H]2C[C@@](C)(OC)[C@@H](O)[C@H](C)O2)[C@H](C)[C@@H](O[C@@H]2O[C@H](C)C[C@H](N(C)C)[C@H]2O)[C@](C)(OC)C[C@@H](C)C(=O)[C@H](C)[C@@H](O)[C@]1(C)O` [Clarithromycin] the “Crystallization upon cooling of the oil” value ([3]; after addition of a stoichiometric equivalent of Vitamin E succinate (free acid), re-dissolution in ethanol and cooling) was “no crystals formed” and the “Crystallization upon cooling of the oil” value ([3]; d-δ-tocopherol/Capmul MCM oil phase with surfactant, ethanol removed, without Vitamin E succinate) was “crystals of clarithromycin were observed”.
In the case of `CCCCc1oc2ccccc2c1C(=O)c1cc(I)c(OCCN(CC)CC)c(I)c1` [Amiodarone HCl], the “Rate of dialysis / diffusion out of the dialysis chamber” value [4] is reported as “linear with concentration”.

Source: patent US6479540B1, “Compositions of tocol-soluble therapeutics” (Sonus Pharmaceuticals, Inc., priority 1999, dated 2002)
